The structures appear in SMILES notation.

The subject of data set [1] is AG11073 fibroblasts from a person. The data set is described as follows: 3D collagen cell culture system, aged skin fibroblasts. The format is cell-based, human. The note with it: five days post-treatment. Here is the method:
(§1) The effects of Mitocreatine on skin fibroblasts cultured in a 3D matrix to better simulate in vivo milieu were examined. The cells were visualized by phase contrast light microscopy and their biological response to different concentrations of Mitocreatine evaluated. The 3D Collagen Cell Culture System from Millipore (Catalogue number ECM 675) was utilized.
(§2) All liquids were prepared according to manufacturer's instructions, and kept on ice. Tissue culture plates were coated with collagen by pipetting 500 μL of chilled Collagen Gel Solution into each well of a 24 well tissue culture plate. The plate was immediately transferred to a 37° C. incubator for 60 min to initiate polymerization of the collagen.
(§3) After the formation of the collagen gel, AG11073 and AG16409 cells were harvested and re-suspended at 4×10^5/mL and 1×10^6 cells were seeded onto the collagen gel. The cells were obtained using the procedure as described in Example 1.
(§4) After overnight incubation at 37° C. with 5% CO2 the media was replaced with fresh media containing various doses of Mitocreatine or the vehicle. Cells were visualized daily using phase contrast microscopy.
Fibroblasts from a person were cultured on a collagen matrix. Two days after seeding, cells were treated with a Mitocreatine at increasing amounts (0, 5, 15 and 25 μL). Five days post-treatment, collagen shrinkage was assayed by means of translucency. […]

Data set [2] deals with AG16409 fibroblasts from a child. The data set is described as follows: 3D collagen cell culture system, young skin fibroblasts. The format is cell-based, human. As to the method:
as §1, §2, §3, §4
Fibroblasts from a person were cultured on a collagen matrix. Two days after seeding, cells were treated with a Mitocreatine at increasing amounts (0, 5, 15 and 25 μL). Five days post-treatment, collagen shrinkage was assayed by means of translucency.

Data set [3] in a line: RIPT (Repeat Insult Patch Test) study. Particulars: 0.1% topical formulation. The format is in vivo, human.
The test system of data set [4] is EpiDerm Full Thickness 400 (EFT-400) tissues. The data set is described as follows: Mattek full-thickness skin model (EFT-400) skin thickness. The note with it: 25 nM with corticosteroid, 14 days; on average; p<0.001. The format is cell-based. Here is the method: Following the protocol of Schoepe, we used the FTSM model to determine if co-treatment with Mitocreatine would reduce the loss in skin thickness produced by glucocorticoids.
2.5 mL of EpiDerm Full Thickness 400 (EFT-400) medium was dispensed into each well of the four 6-well plates aseptically in the tissue culture hood. The plates containing the EFT-400 tissues were removed from their plastic packaging and transferred using sterile forceps into the 6-well plates containing the 2.5 mL of EFT-400 media, making sure that no agarose adheres to the insert and that the media makes full contact with the underside of the tissue insert membrane (no air bubbles under the insert). The apical surface of the tissue should remain exposed to air (no media should be added to the side of the insert).
The tissues were equilibrated overnight at 37° C., 5% CO2. Treatment conditions are listed below in Table 5.
Day 2-13: The plates were visually examined and the media containing the test compounds was replenished each day.
Day 15: The inserts were dislodged from the support and the tissue carefully removed from the support with a scalpel.
The tissues were placed in 50 mL conical tubes containing 10% phosphate buffered formalin and sent for sectioning, histological processing and H&E staining Slides were visualized using a Leica Stereoscope equipped with a digital camera. Images were acquired and measured using ExoLabs software. Data was tabulated in Excel and the results were analyzed.

In data set [5] the test system is C57BL/6J mice. Description: Fore-limb grip strength test. The note with it: 10, 20, 30 mg/kg p.o. once daily for 30 days. The format is in vivo. Here is the method:
Group Setting: C57BL/6J mice were randomly assigned into five groups with different treatment started with balanced full-paw and fore-paw grip strength. Seventy five female mice were dosed at 4 PM for 30 consecutive days (qd). • 1. Vehicle (p.o. via oral gavage once daily for 30 days, n=15) • 2. Creatine (300 mg/kg, p.o. via oral gavage once daily for 30 days, n=15) • 3. Mitocreatine (10 mg/kg, p.o. via oral gavage once daily for 30 days, n=15) • 4. Mitocreatine (20 mg/kg, p.o. via oral gavage once daily for 30 days, n=15) • 5. Mitocreatine (30 mg/kg, p.o. via oral gavage once daily for 30 days, n=15). One hundred female mice were tested before dosing for a baseline of grip strength. 75 mice were selected and randomly assigned into 5 groups for different treatment. Seventy five mice (group 1-5) were test on day 31. Mice were allowed to acclimate to the testing room for at least 30 min before tested. All animals were marked on the tail with a permanent mark pen. Mouse was lowered towards the grid on the push-pull gauge until it grabbed with both front paws Animal was gently pulled backwards by the tail with an angle less than 15° until it released its grip of both fore-paws. The maximal fore-limb grip force was recorded on the strain gauge. Test was repeated 3 times with 15 min interval each time and the average was used. […]

Data set [6] relates to ARPE-19 cells, a retinal pigmented epithelial cell line. Description: WST-1 cell viability in senescent ARPE-19 cells. The format is cell-based, human. Particulars: up to 1 uM; twenty-four hours after treatment. As to the method:
In the present invention ARPE-19 cells were used to evaluate whether Mitocreatine improves mitochondrial parameters and reduces ROS in a cell model of AMD. The cells were prematurely senescenced according to the protocol of Glotin et al. (2008). […] Cells were plated in a 96 well plate for analysis of WST-1 bioreduction, a formazan based dye similar to MTT whose bioreduction is largely dependent on the glycolytic production of NAD(P)H in viable cells and is routinely used to monitor cell viability.
A general note: Tetrazolium assays rely on reduction of a dye to a coloured formazan, in cell work by metabolically active cells.

The test system is the same in data set [7]. Description: XF24 oxygen consumption in senescent ARPE-19 cells. The format is cell-based, human. Particulars: twenty-four hours after treatment; increasing concentrations. Here is the method: In the present invention ARPE-19 cells were used to evaluate whether Mitocreatine improves mitochondrial parameters and reduces ROS in a cell model of AMD. The cells were prematurely senescenced according to the protocol of Glotin et al. (2008). […] Cells were plated in a XF24 (Seahorse Biosciences) plate for analysis of mitochondrial activities. Twenty-four hours before analysis in the XF24 instrument, cells were treated with increasing concentrations on mitocreatine and vehicle. Twenty-four hours after treatment basal oxygen consumption rates (OCR) were assayed. […] Cells were plated in a XF24 (Seahorse Biosciences) plate for analysis of mitochondrial activities. Twenty-four hours before analysis in the XF24 instrument, cells were treated with increasing concentrations on mitocreatine and vehicle. Twenty-four hours after treatment FCCP-stimulated oxygen consumption rates (maximal OCR) were assayed.

In the case of `CN(CC(=O)NCCC[P+](c1ccccc1)(c1ccccc1)c1ccccc1)C(=N)N.Cl.[Cl-]` [Mitocreatine, N^2-[ammonio(imino)methyl]-N^2-methyl-N-[3-(triphenylphosphonio)propyl] glycinamide dichloride], the collagen matrix translucency result in data set [1] is “dose-dependent increase”. For the same molecule, in data set [2], the collagen translucency entry is on record as “No change”. Also, in data set [3], the “allergenicity in RIPT” value was “hypoallergenic”. In addition, the “improvement of skin thickness” value in data set [4] stood at 50%. Further, in data set [5], the “strength (fore limb grip force)” value is “Increases Endurance and Strength”. Moreover, the “cell viability (WST-1)” value in data set [6] is reported as “does not negatively impact cell viability”. Also, in data set [7], the basal oxygen consumption result is on record as “dose-dependent increase” and the “maximal oxygen consumption (FCCP-stimulated)” value was “dose-dependent increase”.

(Values after patent publication US9707244B2, “Compositions and methods for treating conditions that affect epidermis” (Gencia Corporation, priority 2013, dated 2017).)
